One compound from patent publication US8937065B2, “Compositions and methods for modulating a kinase” (Clevexel Pharma, priority 2011, dated 2015) can be followed below.

Like-named read-outs stand apart in the source and are kept apart here.

Data set [1] relates to NF-kB pathway, THP-1 cells. Nature of the data set: NFkB-NFkB-bla THP-1 screen. As to conditions: Homo sapiens, read-out: IC50 Cell-based selectivity: NF-kB pathway THP-1 cells. As for the experimental part:
Mechanism-based inhibition assays using compound 7A (Table 1) were performed using GeneBLAzer® Technology (Invitrogen Corporation), according to manufacturer specifications. Briefly, GeneBLAzer® Technology uses a mammalian-optimized Beta-lactamase reporter gene (bla) combined with a FRET-enabled substrate to provide reliable and sensitive detection in intact cells. Cells were loaded with an engineered fluorescent substrate containing two fluorophores, coumarin and fluorescein. Without bla expression, the substrate molecule remains intact. In this state, excitation of the coumarin results in fluorescence resonance energy transfer to the fluorescein moiety and emission of green light. But when bla is expressed, the substrate is cleaved, the fluorophores are separated, and energy transfer is disrupted. Excitation of the coumarin in the presence of Beta-lactamase activity results in a blue fluorescence signal. […]
General Activator Assay Protocol • 1. […] The assay, plate was read on a fluorescence plate reader (Tecan Safire^2) and the data is analyzed.
NFkB-bla THP-1 cells were thawed and resuspended in Assay Media (RPMI, 10% dialyzed FBS, 0.1 mM NEAA, 1 mM Sodium Pyruvate, 100 U/mL/100 μg/mL Pen/Strep) to a concentration of 625,000 cells/mL. […] The plate was read on a fluorescence plate reader.

The test system of data set [2] is Interleukin 4/STAT6-STAT6-bla RA1. Nature of the data set: Interleukin 4/STAT6-STAT6-bla RA1 inhibition (IL-4-stimulated STAT6 activity in Ramos cells). It counts as cell-based. The following applies: Homo sapiens; Ramos cells, IL4 stimulated; read-out: IC50 B cells mechanism-based: Ramos cells IL4 stimulated STAT6 activity. As for the experimental part:
The inhibition of Interleukin 4/STAT6-STAT6-bla RA1 (activated by IL-4) by several compounds was determined using the Screening Protocol and Assay Conditions (Invitrogen, Madison, Wis.). The assays were performed according to manufacturer's protocols. Example 4, Cell-line Specific Protocols IL-4-stimulated STAT6 activity in Ramos cells for details.
Mechanism-based inhibition assays using compound 7A (Table 1) were performed using GeneBLAzer® Technology (Invitrogen Corporation), according to manufacturer specifications. […] In this state, excitation of the coumarin results in fluorescence resonance energy transfer to the fluorescein moiety and emission of green light. […] Excitation of the coumarin in the presence of Beta-lactamase activity results in a blue fluorescence signal. […]
An activator assay screen was run to obtain the EC80 concentration of the known activator to add in step 3. • 1. […] 4 μL of the EC80 concentration of activator, as determined in an Activator assay, was added to all wells containing compound and known inhibitor to bring the final assay volume to 40 μL. • 4. […] The assay plate was read on a fluorescence plate reader (Tecan Safire) and the data is analyzed. […]
STAT6-bla RA1 cells were thawed. […] The plate was read on a fluorescence plate reader.

The subject of the next data set is Daudi cells. Briefly: Daudi CTG assay (Daudi proliferation, 72 hr, Cell Titer Glo). Type of data set: cell-based. The following applies: Homo sapiens. As for the experimental part: The compounds of the invention were tested on Daudi proliferation according to the procedure in Example 4 (for Daudi cells): Proliferation of RS4; 11, Ramos, Namalwa, RL, Molt-4 and Daudi cells. The compounds of the invention were tested on Daudi proliferation (72 hr), 3 fold dilution, and 9 points in duplicates. The top concentration for compounds of the invention was 10 uM; reference compound 7A top concentration was 10 uM; and Paclitaxel was 500 nM. Cell viability was determined using the Cell Titer Glo (CTG) reagent and detected by EnVision. EC50s were calculated by Prism 5.
The CellTiter-Glo™ Luminescent Cell Viability Assay uses ATP, a required co-factor of the luciferase reaction, as an indicator of metabolically active cells. The enzyme luciferase acts on luciferin in the presence of Mg^2+and ATP to produce oxyluciferin and to release energy in the form of luminescence. Since the luciferase reaction requires ATP, the luminescence produced is proportional to the amount of ATP present, an indicator of cellular metabolic activity.

A further data set can be described thus: Protein binding. It counts as in vitro ADME.

As to `O=C(CN1CCOCC1)Nc1cccc(-c2nc(-c3c[nH]c(C(=O)N4CCCC4)c3)cs2)c1` [7A, 2-morpholino-N-(3-(4-(5-(pyrrolidine-1-carbonyl)-1H-pyrrol-3-yl)thiazol-2-yl)phenyl)acetamide], the IC50 in data set [1] is 40800 nM; in data set [2] it was 32 nM; with Daudi cells (Daudi, read-out: Daudi CTG assay IC50, historical data), 122 nM; in the data set with Daudi cells (Daudi proliferation 72 hr, control compounds, read-out: Daudi CTG assay control IC50) it was 102 nM. This compound had a fraction unbound in the data set “Protein binding” of 0.02.
